Drawing on ChEMBL document CHEMBL3817771, “Structure-Based Design of Peptidic Inhibitors of the Interaction between CC Chemokine Ligand 5 (CCL5) and Human Neutrophil Peptides 1 (HNP1)” (J Med Chem, 2016), this text covers inhibition and Activity for six compounds.

The source made the active and inactive calls. The rule behind the calls is not given here. Peptide text beside a SMILES is read from it.

One assay deals with T1, C-C motif chemokine 5/Neutrophil defensin 1 (Defensin, alpha 1) (Homo sapiens) (UniProt P13501+P59665). Nature of the assay: Inhibition of CCL5 (unknown origin)-HNP1 (unknown origin) interaction in HUVEC assessed as reduction in CCL5-HNP1-driven human monocyte adhesion at 100 ug/ml pre-incubated for 5 mins before human monocyte addition. In kind it is cell-based.
T1 sequence (P13501 whole entry, looked up): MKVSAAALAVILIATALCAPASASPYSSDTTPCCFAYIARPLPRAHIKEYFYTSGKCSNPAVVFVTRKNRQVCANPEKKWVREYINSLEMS
T1 sequence (P59665 whole entry, looked up): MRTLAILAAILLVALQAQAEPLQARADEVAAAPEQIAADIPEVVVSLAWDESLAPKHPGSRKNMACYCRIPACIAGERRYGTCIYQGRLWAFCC
For `CC(C)C[C@@H]1NC(=O)[C@H](CCCNC(=N)N)NC(=O)CNC(=O)[C@H](CCC(N)=O)NC(=O)[C@H](Cc2ccc(O)cc2)NC(=O)[C@H](CCCCN)NC(=O)[C@H](C)NC(=O)[C@H]([C@@H](C)O)NC(=O)CNC(=O)[C@H](Cc2ccc(O)cc2)NC(=O)[C@H](CCCNC(=N)N)NC(=O)[C@H](CCCNC(=N)N)NC(=O)[C@@H](N)CSSC[C@@H](C(N)=O)NC(=O)[C@H](C)NC(=O)[C@H](Cc2ccccc2)NC(=O)[C@H](C)NC(=O)[C@H](Cc2c[nH]c3ccccc23)NC1=O` (HELM PEPTIDE1{C.R.R.Y.G.T.A.K.Y.Q.G.R.L.W.A.F.A.C.[am]}$PEPTIDE1,PEPTIDE1,1:R3-18:R3$$$V2.0), the inhibition result is “Active”.
On to H-RRYGTSIYQ-OH, for which the inhibition result is “Active”.
H-RRYGTSKYQ-OH: the inhibition result is “Active”.
On to H-RRYGTSRYQ-OH, for which the inhibition result was “Active”.
Still for that read-out and setting: the entry for H-TYQRRSGKY-OH is “inactive”; for H-YQGRLWAFSS-OH it is “Active”.

For the next assay, the target named is T1, C-C motif chemokine 5/Neutrophil defensin 1 (Defensin, alpha 1) (Homo sapiens). The assay can be described thus: Inhibition of CCL5 (unknown origin)-HNP1 (unknown origin) interaction in HUVEC assessed as CCL5-HNP1-driven human monocyte adhesion at 100 ug/ml pre-incubated for 5 mins before human monocyte addition. Type of assay: cell-based. On the set-up: scale not given: the % may be the effect or the level left.
Consider H-RRYGTSKYQ-OH, for which the Activity amounted to 11.8%.
